# From article PMC6946680, “Modulation of brain cation-Cl^− cotransport via the SPAK kinase inhibitor ZT-1a” (Nature Communications, 2020)
# Several values for one entry are separate records, joined by “and”; a condition that tells them apart may be missing. Identical values can stand only once. Entries after “also recorded” stand apart in the source; their conditions may differ.
# What was measured:
# SPAK–WNK1 interaction = test system: T1, SPAK–WNK1 interaction; assay: SPAK antibody pull-down / co-immunoprecipitation of WNK1 from HEK-293 cell lysates; assay type: binding, human; conditions: for WNK1 co-immunoprecipitated with SPAK (band quantification): Fig S6
# T1 construct: endogenous in cells; host or cells: HEK-293
# Procedure: Supplemental Fig. 6 Evidence that SPAK associates with WNK1, and interaction is disrupted by ZT-1a and its analogs. Non-transfected HEK293 cell lysates were incubated with the RFQV peptide […]
# ZT-1a for 30 min on ice and subjected to SPAK antibody immunoprecipitation. Immunoprecipitates were subjected to immunoblot probed with antibody to total WNK1 and antibody to total SPAK. Left panels: representative immunoblots. Right panels, summarized data quantitated by densitometry (n=3, means ± SEM; **,
# NCC pThr46/50/55/60 = assay: Pharmacodynamic study, NCC phosphorylation in kidney of naive mice; assay type: in vivo, mouse; conditions: Fig S8b (kidney)
# Procedure: To define ZT-1a efficacy in naive mice in vivo, we examined phosphorylation of SPAK, NKCC1, and NCC in kidney, and phosphorylation of SPAK, NKCC1, and KCC3 in brain, after intraperitoneal (i.p.) administration of either ZT-1a (10, 30, 50, and 100 mg/kg) or Closantel (50 mg/kg as a reference). […]
# 5. Pharmacodynamic (PD) study
# Male C57BL/6j wild-type mice (6 weeks old, Charles River Laboratories Edinburgh UK) were treated with ZT-1a (in DMSO, Sigma) by subcutaneous injection at doses of 0, 3, 10, 30, 50 and 100 mg/kg. 50 mg/kg Closantel was administered as a comparative control. Vehicle control mice were treated with an equal volume of DMSO solution. One hour after administration, mice were sacrificed by cervical dislocation, and kidney and brain tissues were rapidly dissected and snap-frozen in liquid nitrogen. Age- […]
# free conditions at the University of Dundee (UK) as described in our recent study1. Animal experiments and breeding were approved by the University of Dundee ethical committee and performed under a […]
# Policy on the Care, Welfare and Treatment of Animals, and regulations set by the University of Dundee and the U.K. Home Office. […]
# Brain and kidney tissues were collected at 60 min post injection, and proteins subjected to immunoblot were probed with antibodies specific for phosphorylated forms of SPAK,
# NKCC1 pThr203/207/212 [1] = assay: Choroid plexus NKCC1 immunoblot in rat IVH model; assay type: in vivo
# [2] = test system: CSF secretion by choroid plexus epithelium; assay: Rate of CSF production after IVH with intracerebroventricular drug; assay type: in vivo; conditions: rat; ZT-1a treatment for 48 h at 10 µM
# [3] = test system: regional cerebral blood flow; assay: Regional cerebral blood flow by laser speckle contrast imaging after tMCAO; assay type: in vivo, mouse; conditions: for % CBF: single mice
# Procedure: Regional cerebral blood flow was measured using a two-dimensional laser speckle contrast analysis system (PeriCam PSI High Resolution with PIMSoft, Perimed)[65]. Isoflurane-anesthetized mice were head-fixed using stereotaxic equipment during imaging. The skin was retracted to expose the intact skull. Images were taken at 19 frames/second with averaging. Average signal intensity was taken from fixed-size (0.5-mm^2) regions of interest drawn over the parietal bone plate on the ipsi (IL)- and contralateral (CL) sides. Percent perfusion values were taken in comparison with the mean values of the pre-ischemic ipsilateral side. Five consecutive images at each time period per animal were averaged for analysis. […]
# cerebral blood flow (rCBF) in ischemic mice. a and d Representative two-dimensional laser speckle contrast images of rCBF. Vehicle (DMSO), ZT-1a (A, 2.5 mg/kg), or Closantel (D, 1.25 mg/kg, i.p.) was administered i.p. at 3 hr and again at 8 hr post-reperfusion after MCAO. Pseudocolor scale bar indicates relative signal intensity. b and e No changes of rCBF were detected in the non-ischemic […]
# contralateral (CL) hemispheres of vehicle-control or ZT-1a-treated (b) or Closantel-treated mice (e).
# Data are mean ± SD, n = 3. c and f Similar reductions and recoveries of rCBF in the ischemic ipsilateral hemispheres (IL) were detected in the ZT-1a-treated (c) or Closantel-treated ischemic mice (f), and neither differed from vehicle-injected mice. Data are mean ± SEM, n = 3.
# [4] = test system: mouse model of ischemic stroke (tMCAO); assay: Corner test after tMCAO; assay type: in vivo; conditions: for Corner test (Unilateral turns): Fig 7c, individual mice #1-#7
# pERK1/2 = assay: Immunoblot of phospho-ERK1/2 in ischemic mouse brain; assay type: in vivo; conditions: for pERK/Na K pump (fold veh-CL): Membrane
# Description: Cytosol and crude membrane protein
# Expressions of Na+-K+ ATPase
# respectively. d Densitometric analyses of immunoblots.
# tSPAK tOSR1 = assay: Immunoblot of total SPAK/OSR1 in ischemic mouse brain membrane and cytosol fractions; assay type: in vivo; conditions: Membrane, single samples
# Description: Supplement 41467_2019_13851_MOESM4_ESM.zip/Source Data.xlsx, sheet "Fig S11b and c" | column: tSPAK tOSR1/Na K pump (fold veh-CL)
# NKCC1 pThr203/207/212 [5] = assay: Immunoblot of NKCC1 p-Thr203/Thr207/Thr212 in HEK-293 cells; assay type: cell-based, human; conditions: for pNKCC1/NKCC1 band intensity ratio: single replicates
# pNKCC1 (pThr203/207/212) = assay: Immunoblot of pNKCC1 in ischemic mouse brain membrane fractions; conditions: for NKCC1 / Na-K pumb / pThr203/207/212 / NKCC1: Fig 8, individual samples
smiles,measurement,setting,value
"Cc1cc(C(C#N)c2ccc(Cl)cc2)c(Cl)cc1NC(=O)c1cc(Cl)ccc1O (stereo not shown) [ZT-1a, 5-chloro-N-(5-chloro-4-((4-chlorophenyl)(cyano)methyl)-2-methylphenyl)-2-hydroxybenzamide]",WNK1 co-immunoprecipitated with SPAK (band quantification),SPAK–WNK1 interaction; 10 uM,0.445 and 0.402 and 0.4282 and 0.39
same,WNK1 co-immunoprecipitated with SPAK (band quantification),SPAK–WNK1 interaction; 30 uM,0.176 and 0.186 and 0.196
same,WNK1 co-immunoprecipitated with SPAK (band quantification),SPAK–WNK1 interaction; 100 uM,0.121 and 0.086 and 0.0911 and 0.105
same,WNK1 co-immunoprecipitated with SPAK (band quantification),SPAK–WNK1 interaction; 300 uM,0.066 and 0.072 and 0.068 and 0.058
same,WNK1 co-immunoprecipitated with SPAK (band quantification),SPAK–WNK1 interaction; 1000 uM,0.048 and 0.027 and 0.0332 and 0.031
same,co-immunoprecipitation of WNK1 with SPAK,"SPAK–WNK1 interaction; HEK-293 cell lysates, absence or presence of competitor peptide",abolished by ZT-1a more potently than by STOCK1S-50699 or by Closantel
same,pTh46.50.55 / NCC,NCC pThr46/50/55/60; 10 mg/kg,1.78 and 1.82 and 2.81 and 2.21
same,pTh60 / NCC,NCC pThr46/50/55/60; 10 mg/kg,1.01 and 0.99 and 1 and 0.94
same,pTh46.50.55 / NCC,NCC pThr46/50/55/60; 30 mg/kg,2.61 and 1.78 and 2.06 and 1.98
same,pTh60 / NCC,NCC pThr46/50/55/60; 30 mg/kg,1.05 and 0.97 and 0.9 and 1.01
same,pTh46.50.55 / NCC,NCC pThr46/50/55/60; 50 mg/kg,0.4 and 0.7 and 0.69 and 0.55
same,pTh46.50.55 / NCC,NCC pThr46/50/55/60; 100 mg/kg,0.68 and 0.46 and 0.41
same,NKCC1 pThr203/207/212 / Actin,"NKCC1 pThr203/207/212 [1]; rat CPe 48 h post IVH + 1a, replicates",1.03 and 0.7 and 0.5 and 0.9 and 0.81 and 0.55
same,reduction of IVH-induced expression of pNKCC1 in CPe,"NKCC1 pThr203/207/212 [1]; rat, ICV ZT-1a, 48 h post IVH, n = 3",69 ± 4.3%
same,decrease of post-IVH CSF hypersecretion,[2],~ 2.3 fold
same,% CBF,"[3]; Fig S10b/S10e, Pre",100%
same,% CBF,"[3]; Fig S10b/S10e, Reperfusion 10 min",99% and 109% and 96%
same,% CBF,"[3]; Fig S10b/S10e, Reperfusion 20 min",87% and 110% and 86%
same,% CBF,"[3]; Fig S10b/S10e, Reperfusion 3 h",120% and 108% and 100%
same,% CBF,"[3]; Fig S10b/S10e, Reperfusion 4 h",119% and 117% and 112%
same,% CBF,"[3]; Fig S10b/S10e, Reperfusion 24 h",106% and 104% and 114%
same,% CBF,"[3]; Fig S10b/S10e, mcao 10 min",78% and 99% and 105%
same,% CBF,"[3]; Fig S10b/S10e, mcao 20min",76% and 107% and 98%
same,% CBF,"[3]; Fig S10b/S10e, mcao 50 min",104% and 96%
same,% CBF,"[3]; Fig S10c/S10f, Pre",100%
same,% CBF,"[3]; Fig S10c/S10f, Reperfusion 10 min",70% and 72% and 78%
same,% CBF,"[3]; Fig S10c/S10f, Reperfusion 20 min",75% and 66% and 82%
same,% CBF,"[3]; Fig S10c/S10f, Reperfusion 3 h",84% and 102% and 81%
same,% CBF,"[3]; Fig S10c/S10f, Reperfusion 4 h",75% and 87% and 86%
same,% CBF,"[3]; Fig S10c/S10f, Reperfusion 24 h",83% and 101% and 109%
same,% CBF,"[3]; Fig S10c/S10f, mcao 10 min",35% and 30% and 25%
same,% CBF,"[3]; Fig S10c/S10f, mcao 20min",32% and 31% and 24%
same,% CBF,"[3]; Fig S10c/S10f, mcao 50 min",30% and 27% and 22%
same,regional cerebral blood flow (rCBF),"[3]; within the 24-h post-stroke period, ischemic mice",does not affect regional cerebral blood flow; also recorded: unaffected
same,Corner test (Unilateral turns),[4]; Day 1,9 Unilateral turns (2×) and 10 Unilateral turns and 6 Unilateral turns (4×)
same,Corner test (Unilateral turns),[4]; Day 3,6 Unilateral turns (2×) and 10 Unilateral turns and 7 Unilateral turns (3×) and 5 Unilateral turns
same,Corner test (Unilateral turns),[4]; Day 5,6 Unilateral turns (5×) and 5 Unilateral turns (2×)
same,Corner test (Unilateral turns),[4]; Day 7,6 Unilateral turns (4×) and 5 Unilateral turns (3×)
same,Corner test (Unilateral turns),[4]; Day -1 (baseline),5 Unilateral turns (5×) and 6 Unilateral turns (2×)
same,"corner test, turn preference/asymmetries","[4]; ZT-1a 5.0 mg/kg, days 1–7 post stroke",absence of asymmetries by day 7 post stroke
same,pERK/GAPDH (fold veh-CL),"pERK1/2; Cytosol, CL, Fig S4d",1.33 fold veh-CL and 1.29 fold veh-CL and 0.75 fold veh-CL
same,pERK/Na K pump (fold veh-CL),"pERK1/2; CL, Fig S4d",1.45 fold veh-CL and 1.52 fold veh-CL and 1.76 fold veh-CL
same,pERK/Na K pump (fold veh-CL),"pERK1/2; IL, Fig S4d",1.27 fold veh-CL and 2.10 fold veh-CL and 1.54 fold veh-CL
same,p-ERK in ischemic brains,pERK1/2; ZT-1a 5.0 mg/kg,no marked inhibition
same,tSPAK tOSR1/Na K pump (fold veh-CL),tSPAK tOSR1,0.93 fold veh-CL and 1.11 fold veh-CL and 1.70 fold veh-CL and 1.17 fold veh-CL and 1.58 fold veh-CL
same,inhibition at 1 µM,"NKCC1 pThr203/207/212 [5]; Homo sapiens, HEK293, read-out: inhibition of phosphorylation of NKCC1 p-Thr203/207/212, 1 µM ZT-1a, HEK-293 cells, n = 4",72 ± 5.2%
same,pNKCC1/NKCC1 band intensity ratio,"NKCC1 pThr203/207/212 [5]; Hypotonic low Cl, 1 uM",0.292 and 0.311 and 0.247 and 0.273
same,pNKCC1/NKCC1 band intensity ratio,"NKCC1 pThr203/207/212 [5]; Hypotonic low Cl, 3 uM",0.113 and 0.104 and 0.103 and 0.1063
same,pNKCC1/NKCC1 band intensity ratio,"NKCC1 pThr203/207/212 [5]; Hypotonic low Cl, 10 uM",0.004 and 0.007 and 0.005 and 0.003
same,pNKCC1/NKCC1 band intensity ratio,"NKCC1 pThr203/207/212 [5]; Isotonic control, 1 uM",0.133 and 0.075 and 0.106 and 0.093
same,pNKCC1/NKCC1 band intensity ratio,"NKCC1 pThr203/207/212 [5]; Isotonic control, 3 uM",0.048 and 0.046 and 0.043 and 0.041
same,pNKCC1/NKCC1 band intensity ratio,"NKCC1 pThr203/207/212 [5]; Isotonic control, 10 uM",0.006 (2×) and 0.004 and 0.005
same,NKCC1 / Na-K pumb,pNKCC1 (pThr203/207/212); CL hemisphere,1.613 and 1.481 and 1.6 and 1.576 and 1.424 and 1.642
same,pThr203/207/212 / NKCC1,pNKCC1 (pThr203/207/212); CL hemisphere,0.451 and 0.437 and 0.265 and 0.378 and 0.429 and 0.303
same,NKCC1 / Na-K pumb,pNKCC1 (pThr203/207/212); IL hemisphere,1.43 and 1.528 and 1.481 and 1.417 and 1.587 and 1.394
same,pThr203/207/212 / NKCC1,pNKCC1 (pThr203/207/212); IL hemisphere,0.461 and 0.418 and 0.385 and 0.452 and 0.396 and 0.372
same,reduction of ischemia-induced elevation of pNKCC1,pNKCC1 (pThr203/207/212); compared with vehicle-control mice,55–65%
same,ischemia-induced increase of pNKCC1,"pNKCC1 (pThr203/207/212); post-stroke ZT-1a 5 mg/kg, 24 h reperfusion",prevented
